In patent US10118893B2, “Method of making complex nano particles and using the same to reduce cell viability” (Umm Al-Qura University, priority 2014, dated 2018):

Assays:
[1] = Critical micelle concentration (CMC) and surface parameters of the surfactants; format: physicochemical; set-up: PC20: unit not given here
Text: That fact could be explained from the unique property of the metal complexes in water. That is the complexes retain its unity in their solutions, which increased their volume in the aqueous media and then repulsion is occurred between the hydrophobic chain and water molecules. […] The efficiency “PC20” increase with increasing molar ratio of methylene units. These due to the fact that the efficiency of adsorption at interfaces increase linearly with increase in the carbon atoms in hydrophobic group. In case of the prepared parent cationic surfactants by increasing the number methylene units Maximum surface excess Γmax increases, this due to migration of molecules to the water-air interface. The consequence increase of Γmax leads to crowdiness occurred at the interface which causing decrease in Minimum area per molecule Amin values. That is due to the minimum surface area decrease with increasing the hydrophobic chain length of the synthesized surfactant molecules. The standard free energies of micellization ΔG° mic and adsorption ΔG° ads values are always negative indicating the spontaneously of these two processes but there is more increase in negativity of ΔG° ads rather than those of micellization indicating the tendency of the molecules to be adsorbed at the interface.

[2] = test system: MCF7 (Breast carcinoma); experiment: Cytotoxic activity on human tumor cell line MCF7; format: cell-based; settings: dose to reduce survival to 50%
Description: (§1) Olylammonium hydrogen selenites hydrogen selenite with its cobalt and platinum complexes were investigated as potential selective, anticancer prodrugs. They were tested by using Ehrlich Acites Carcinoma (EAC) as a model system of mice cell tumor. These compounds were also Tested in vitro on human […] monolayer tumor cell lines: MCF7 (Breast carcinoma), HEPG2 (liver carcenoma), U 251 ([…]) and HCT116 (colon carcinoma).
(§2) The results of the cytotoxic activity on human tumor cell lines were determined according to the dose values of drug exposure for cell lines to reduce survival to 50% (Ic50). The experimental results recorded in Table (3).

[3] = test system: Ehrlich ascites carcinoma (EAC) cells; experiment: Antitumor activity using Ehrlich ascites carcinoma (EAC), in vitro percentage of nonviable cells; format: cell-based, mice; settings: NVC %
Description: as §1
Ehrlich ascites carcinoma cells as a model system was based on the finding that it is excellent tool for studying the biological behavior of malignant tumors and drug action with cells. A line of Ehrlich ascites carcinoma (EAC) which used in the present study had been kindly supplied from National Cancer Institute, Cairo, Egypt, and maintained in female Swiss albino mice through weekly […] transplantation of 2.5×10^6 tumor cells/mouse. EAC cells were obtained by needle aspiration with aseptic condition. The ascetic fluid was diluted with sterile saline so that 0.1 ml contains 2.5×10^6 cells counted microscopically using a haemocytometer. In vitro studying of these compounds antitumor activity was determined according to the percentage of nonviable cells (NVC %) which was calculated by the following equation NVC %=[number of NVC/total number of cells][…].

[4] = test system: HELA; experiment: Cytotoxic activity on human tumor cell line HELA; format: cell-based; settings: dose to reduce survival to 50%
Description: as §1, §2

[5] = test system: sulphur reducing bacteria; experiment: Antibacterial activity against sulphur reducing bacteria, inhibition zone; format: cell-based
Text: The results of the synthesized cationic surfactants against sulphur reducing bacteria recorded in Table 4.

[6] = test system: HEPG2 (liver carcenoma); experiment: Cytotoxic activity on human tumor cell line HEPG2; format: cell-based; settings: dose to reduce survival to 50%
Description: as §1, §2

[7] = test system: HCT116 (colon carcinoma); experiment: Cytotoxic activity on human tumor cell line HCT116; format: cell-based; settings: dose to reduce survival to 50%
Description: as §1, §2

## CCCCCCCC/C=C\CCCCCCCCN.O=[Se](O)O [IIa, olylammonium hydrogen selenite]
[1]
  Δ Gads/Amin: −46.8
  ΠCMC: 39 mN/m
[1]; critical micelle concentration, values × 10−3
  CMC × 10−3: 1.3
[1]; efficiency
  PC20: 3.8
[1]; maximum surface excess, values × 10−11
  Γmax × 10−11: 10.6 Mole/cm^2
[1]; minimum area per molecule
  A min: 1.6 nm2
[1]; standard free energy of adsorption
  Δ Gads: −67.7
[1]; standard free energy of micellization
  Δ Gmic: −34.1
[1]; surface tension at CMC
  γCMC: 33 mN/m
[2]
  MCF7 (IC50): does not reach to Ic50
[3]; Conc. 25 μg/ml
  Percent nonviable cells: 10%
[3]; Conc. 50 μg/ml
  Percent nonviable cells: 20%
[3]; Conc. 100 μg/ml
  Percent nonviable cells: 40%
[4]
  HELA (IC50): does not reach to Ic50
[5]
  Inhibition zone diameter: 25 mm/mg sample
[6]
  HEPG2 (IC50): does not reach to Ic50
[7]
  HCT116 (IC50): does not reach to Ic50
